Columns and labels:
[1] = target: Phosphoenolpyruvate carboxykinase, cytosolic [GTP] [H477R] (Rat, UniProt P07379, H477R); assay: PEPCK Inhibition Assay
Procedure: (§1) The inhibition of H477R PEPCK by β-sulfopyruvate (βSP), oxalate, and GMPPCP was conducted in the direction of PEP synthesis (OAA → PEP). The Michaelis constant of OAA was determined at various fixed concentrations of β-SP (0−100 μM) or oxalate (0−1000 μM), and the Michaelis constant for GTP was determined at various fixed concentrations of GMPPCP (0-800 μM).

[2] = target: T1, Phosphoenolpyruvate carboxykinase, cytosolic [GTP] (Rattus norvegicus, UniProt P07379); assay: PEPCK Inhibition Assay
T1 sequence (P07379 whole entry): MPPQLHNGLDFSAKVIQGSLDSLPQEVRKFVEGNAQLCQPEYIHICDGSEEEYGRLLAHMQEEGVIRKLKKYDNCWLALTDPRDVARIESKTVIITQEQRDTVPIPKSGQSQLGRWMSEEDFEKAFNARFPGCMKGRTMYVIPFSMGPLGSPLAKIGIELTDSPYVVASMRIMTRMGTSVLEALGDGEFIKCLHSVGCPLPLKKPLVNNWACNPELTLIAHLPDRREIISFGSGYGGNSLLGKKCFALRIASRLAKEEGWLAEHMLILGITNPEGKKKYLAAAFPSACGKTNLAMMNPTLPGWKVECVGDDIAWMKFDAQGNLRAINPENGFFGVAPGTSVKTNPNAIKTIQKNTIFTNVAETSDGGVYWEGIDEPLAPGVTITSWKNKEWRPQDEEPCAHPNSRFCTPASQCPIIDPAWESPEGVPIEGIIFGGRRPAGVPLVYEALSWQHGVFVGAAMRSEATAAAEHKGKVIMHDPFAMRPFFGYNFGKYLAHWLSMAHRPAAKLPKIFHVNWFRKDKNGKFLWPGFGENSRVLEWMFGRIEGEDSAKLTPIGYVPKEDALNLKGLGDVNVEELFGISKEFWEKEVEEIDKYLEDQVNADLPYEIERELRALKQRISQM
Procedure: as §1

Chain of Phosphoenolpyruvate carboxykinase, cytosolic [GTP] [H477R] (P07379 whole entry H477R): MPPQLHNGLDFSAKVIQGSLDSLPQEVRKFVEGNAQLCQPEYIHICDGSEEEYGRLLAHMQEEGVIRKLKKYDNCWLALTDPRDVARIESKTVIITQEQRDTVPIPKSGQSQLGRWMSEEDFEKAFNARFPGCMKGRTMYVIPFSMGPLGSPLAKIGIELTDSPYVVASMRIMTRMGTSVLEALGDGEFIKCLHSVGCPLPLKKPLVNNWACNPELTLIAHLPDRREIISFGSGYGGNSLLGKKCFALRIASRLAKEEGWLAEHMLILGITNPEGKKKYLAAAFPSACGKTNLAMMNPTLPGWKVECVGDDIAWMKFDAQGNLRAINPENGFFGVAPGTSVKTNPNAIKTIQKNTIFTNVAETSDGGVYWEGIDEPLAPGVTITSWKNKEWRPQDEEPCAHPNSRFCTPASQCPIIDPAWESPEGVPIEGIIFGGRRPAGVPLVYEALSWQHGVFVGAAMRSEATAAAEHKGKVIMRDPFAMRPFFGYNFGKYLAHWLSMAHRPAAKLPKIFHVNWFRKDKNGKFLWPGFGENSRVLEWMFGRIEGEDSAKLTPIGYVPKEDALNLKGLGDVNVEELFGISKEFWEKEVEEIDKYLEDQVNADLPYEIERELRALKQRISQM

Ki [1]	SMILES	Ki [2]
37 µM	O=C(O)C(=O)CS(=O)(=O)O [β-Sulfopyruvate]	
441 µM	O=C(O)CC(=O)C(=O)O [keto-Oxaloacetate]	
289 µM	C=C(OP(=O)(O)O)C(=O)O [PHOSPHOENOLPYRUVATE]	

SMILES	Ki [1]	Ki [2]
Nc1nc(O)c2ncn([C@@H]3O[C@H](COP(=O)(O)OP(=O)(O)C[P+]([O-])(O)O)[C@@H](O)[C@H]3O)c2n1 [β,γ-methyleneguanosine 5′-triphosphate]	696 µM	150 µM

From BindingDB's records for doi:10.1021/acs.biochem.7b00178 (University of Waterloo, 2017)
